Broadly, the solubility is the dissolved amount per volume that the medium holds.

The values that follow come from patent US20040209843A1, “Aqueous cilostazol preparation for injection” (priority 2001, published 2004).

SMILES strings stand for the structures. Values after ≈ are worked out from the molar mass of the structure shown.

Data set [1] in a line: saturated concentration (solubility) of cilostazol in aqueous cyclodextrin solutions, determined by HPLC. The class given is physicochemical. The note with it: aqueous with cosolvent or surfactant or cyclodextrin, thermodynamic from solid; excess cilostazol in water for injection with the row's cyclodextrin compound at the row's concentration (g/L); shaken at 60° C. for 24 hours, membrane filtered, HPLC of filtrate. The protocol: Each of the following cyclodextrin compounds was dissolved in water for injection. To this, an excess amount of cilostazol was added and the mixture was shaken at 60° C. for 24 hours. Then, the mixture was filtered through a membrane filter to remove insoluble materials and the amount of cilostazol in the filtrate was determined by the method of HPLC (High Performance Liquid Chromatography) to calculate the saturated concentration (solubility). Cyclodextrin compounds used were alpha-cyclodextrin (Trade Name: Celdex A-100, manufactured by NIHON SHOKUHIN KAKO Co. Ltd., beta-cyclodextrin (Trade Name: Celdex B-100, manufactured by NIHON SHOKUHIN KAKO Co. Ltd.), gamma-cyclodextrin (Trade Name: Celdex C-100, manufactured by NIHON SHOKUHIN KAKO Co. Ltd.), 6-O-alpha-maltosyl-beta-cyclodextrin (manufactured by Ensuiko Sugar Refining Co., Ltd), 2-hydroxypropyl-beta-cyclodextrin (Trade Name: Celdex HP-beta-CD, manufactured by NIHON SHOKUHIN KAKO Co. Ltd), hepta-substituted sulfobutylether-beta-cyclodextrin sodium salt (hereinafter abbreviated as SBE7-beta-CD)(Trade Name: Captisol, manufactured by CyDex Inc.).
Also, as a Reference Example, the solubility of cilostazol without addition of cyclodextrin compounds was determined similarly.

The conditions of data set [2]: ordinary temperatures; cited from earlier work.

As for `O=C1CCc2cc(OCCCCc3nnnn3C3CCCCC3)ccc2N1` [Cilostazol, 6-[4-(1-cyclohexyl-1,2,3,4-Tetrazol-5-yl)butoxy]-3,4-dihydrocarbostyril], the solubility at 24 h in data set [1] was determined as 3.5 µg/mL (≈ 9.47 µM). Moreover, in data set [2], the solubility in water entry is recorded as “about 3 μg/ml”.
